Literature values, collected in US5514648A, “Fungicidally active compounds” (priority 1990, dated 1996).

What was measured:
Bacillus subtilis = details: against Bacillus subtilis; cited from earlier work
Escedchia coli = details: against Escedchia coli; cited from earlier work
Staphylococcus aureus = details: against Staphylococcus aureus; cited from earlier work
Penicillium digitalum = details: spore germination test with Penicillium digitalum; cited from earlier work

CC1CCCCCC(=O)c2c(O)cc(O)cc2CC(=O)O1 (stereo not shown) [curvularin, Curvularin]
anti-bacterial activity (Bacillus subtilis): Neither curvularin nor the crude filtrates from Curvularia showed
anti-bacterial activity (Escedchia coli): Neither curvularin nor the crude filtrates from Curvularia showed
anti-bacterial activity (Staphylococcus aureus): Neither curvularin nor the crude filtrates from Curvularia showed
anti-fungal activity (Penicillium digitalum): Neither curvularin nor the crude filtrates from Curvularia showed
